Results from patent US12364261B2, “Liquid sulfonylurea- and Li-salt containing herbicidal compositions” (priority 2016, dated 2025).
Like-named read-outs stand apart in the source and are kept apart here.

Tests used:
[1] = chemical stability of active ingredient in liquid formulation after storage at 54° C. for two weeks (HPLC, relative to −10° C. control); type: physicochemical
Method: Chemical stability can be determined as a percentage of the sulfonyl urea remaining (e.g. as determined by HPLC) when the liquid composition (e.g. a 50 ml sample of the liquid composition in a 60 ml hermetically sealed Winchester bottle) has been stored at 54° C. for two weeks relative to a corresponding control sample that has been stored at −10° C. for two weeks.
Sulfonylurea was added to a solvent in an amount of 25 wt. %. The mixture was placed in a mill (Eiger Torrance Mini Mill) containing glass beads (1.0-1.25 mm). The suspension was then milled to provide a 25 wt. % sulfonylurea millbase having a particle size (D50) between 2 and 3 μm.
Lithium salt was added to solvent in an amount of 25 wt. % and milled as described above to provide a 25 wt. % lithium salt millbase having a particle size (D50) between 2 and 3 μm.
An appropriate amount of the milled concentrate of sulfonylurea (i) was blended with solvent (optionally containing surfactant) until homogenous, and then further blended with milled concentrate of lithium salt (ii) until homogenous, resulting in the oil dispersions as described in the tables below.
The liquid formulations were stored in tightly closed glass bottles in thermostatically controlled incubators at 54° C. for two weeks with control samples stored at −10° C. After storage, all formulations were analysed for active ingredient content(s) by HPLC. Stability is reported with respect to the amount of active ingredient remaining relative to a corresponding sample stored at −10° C. for two weeks.

[2] = after 5 days, depending on the selected solvent; U.S. Pat. No. 5,731,264; cited from earlier work
[3] = one week of storage at 40° C.; WO 2007/027863 A2; cited from earlier work
[4] = in the presence of lithium acetate

Row | SMILES | chemical stability in the presence of lithium acetate [1, 4] | also measured
1 | COC(=O)c1ccccc1S(=O)(=O)NC(=O)Nc1nc(C)nc(OC)n1 [metsulfuron-methyl, methyl 2-[[[[(4-methoxy-6-methyl-1,3,5-triazin-2-yl)amino]carbonyl]amino]sulfonyl]benzoate] | – | chemical stability in the presence of lithium acetate [1]: excellent chemical stability; metsulfuron methyl lost [2]: 25-30%
2 | COC(=O)c1ccccc1S(=O)(=O)NC(=O)N(C)c1nc(C)nc(OC)n1 [tribenuron-methyl, methyl 2-[[[[N-(4-methoxy-6-methyl-1,3,5-triazin-2-yl)-N-methylamino]carbonyl]amino]-sulfonyl]benzoate] | – | tribenuron-methyl lost [3]: up to 66.5%
3 | CCOC(=O)c1cnn(C)c1S(=O)(=O)NC(=O)Nc1nc(OC)cc(OC)n1 [pyrazosulfuron-ethyl, ethyl 5-[[[[(4,6-dimethoxy-2-pyrimidinyl)amino]carbonyl]amino]sulfonyl]-1-methyl-1H-pyrazole-4-carboxylate] | excellent chemical stability | –

Now from value to compound, other results behind:

Row | chemical stability in the presence of lithium acetate [1, 4] | SMILES | also measured
4 | excellent chemical stability | COC(=O)c1ccc(I)cc1S(=O)(=O)NC(=O)Nc1nc(C)nc(OC)n1 [iodosulfuron-methyl, methyl 4-iodo-2-[[[[(4-methoxy-6-methyl-1,3,5-triazin-2-yl)amino]carbonyl]amino]sulfonyl]benzoate] | chemical stability in the presence of lithium salts ([1]; in the presence of lithium acetate, formate, benzoate, octanoate, salicylate, citrate, carbonate, phosphate, chloride and sulphate): excellent chemical stability
5 | excellent chemical stability | COC(=O)c1c(Cl)nn(C)c1S(=O)(=O)NC(=O)Nc1nc(OC)cc(OC)n1 [halosulfuron-methyl, methyl 3-chloro-5-[[[[(4,6-dimethoxy-2-pyrimidinyl)amino]carbonyl]amino]sulfonyl]-1-methyl-1H-pyrazole-4-carboxylate] | –
6 | excellent chemical stability | COc1cc(OC)nc(NC(=O)NS(=O)(=O)N(C)S(C)(=O)=O)n1 [amidosulfuron, N-[[[[(4,6-dimethoxy-2-pyrimdinyl)amino]carbonyl]amino]sulfonyl]-N-methylmethanesulfonamide] | –
